According to PMC10511816 (The Journal of Biological Chemistry, 2023):

Tests used:
[1] = tested on: hypoxanthine-guanine phosphoribosyltransferase (HGPRT); conditions: cited from earlier work
XDH = XDH (Bos taurus, UniProt P80457); conditions: 2 μM hypoxanthine, 500 μM β-NAD+, 6 nM XDH, pH 8.5, 25 °C
Description: (§1) The rate of NAD^+ conversion to NADH was measured at A340 nm.
(§2) Bovine milk was obtained from the animal farm of the Nippon Veterinary and Life Science University. […] The dehydrogenase form of the enzyme (XDH) was obtained by reacting XO immediately upon purification with 5 mM DTT at pH 8.5, 25 °C for 1 h. XO and XDH assays were carried out at 25 °C under aerobic conditions. […] A total of 500 μM β-NAD^+ was added to the same reaction solution for XDH activity. Physiological conditions such as pH 7.4 (0.1 M potassium phosphate buffer (KPB), 0.2 mM EDTA) and the addition of 50 μM β-NADH were also used. The activity was measured by following 295 nm and 340 nm on a UV-1800 or UV1900i spectrophotometer. […] In addition, the enzyme reaction solution was quenched with perchloric acid and neutralized with K2CO3, with products analyzed using HPLC as described below. Spectrophotometric data were analyzed using UV-Probe software Ver. 2.70 or LabSolutions UV-Vis Ver. […] Kinetic parameters were determined from nonlinear curve fits of raw data using GraphPad Prism 9 software.

XOR [2] = biological target: T1, XOR (Bos taurus, UniProt P80457); experiment: XOR kinetics with phenazine methosulfate / cytochrome c reduction (550 nm); assay type: biochemical, bovine; conditions: for Types of inhibition / Ki: XOR; for Types of inhibition: PMS
T1 construct: Bovine milk was obtained from the animal farm of the Nippon Veterinary and Life Science University; from tissue; host or cells: bovine milk
T1 sequence (P80457 whole entry): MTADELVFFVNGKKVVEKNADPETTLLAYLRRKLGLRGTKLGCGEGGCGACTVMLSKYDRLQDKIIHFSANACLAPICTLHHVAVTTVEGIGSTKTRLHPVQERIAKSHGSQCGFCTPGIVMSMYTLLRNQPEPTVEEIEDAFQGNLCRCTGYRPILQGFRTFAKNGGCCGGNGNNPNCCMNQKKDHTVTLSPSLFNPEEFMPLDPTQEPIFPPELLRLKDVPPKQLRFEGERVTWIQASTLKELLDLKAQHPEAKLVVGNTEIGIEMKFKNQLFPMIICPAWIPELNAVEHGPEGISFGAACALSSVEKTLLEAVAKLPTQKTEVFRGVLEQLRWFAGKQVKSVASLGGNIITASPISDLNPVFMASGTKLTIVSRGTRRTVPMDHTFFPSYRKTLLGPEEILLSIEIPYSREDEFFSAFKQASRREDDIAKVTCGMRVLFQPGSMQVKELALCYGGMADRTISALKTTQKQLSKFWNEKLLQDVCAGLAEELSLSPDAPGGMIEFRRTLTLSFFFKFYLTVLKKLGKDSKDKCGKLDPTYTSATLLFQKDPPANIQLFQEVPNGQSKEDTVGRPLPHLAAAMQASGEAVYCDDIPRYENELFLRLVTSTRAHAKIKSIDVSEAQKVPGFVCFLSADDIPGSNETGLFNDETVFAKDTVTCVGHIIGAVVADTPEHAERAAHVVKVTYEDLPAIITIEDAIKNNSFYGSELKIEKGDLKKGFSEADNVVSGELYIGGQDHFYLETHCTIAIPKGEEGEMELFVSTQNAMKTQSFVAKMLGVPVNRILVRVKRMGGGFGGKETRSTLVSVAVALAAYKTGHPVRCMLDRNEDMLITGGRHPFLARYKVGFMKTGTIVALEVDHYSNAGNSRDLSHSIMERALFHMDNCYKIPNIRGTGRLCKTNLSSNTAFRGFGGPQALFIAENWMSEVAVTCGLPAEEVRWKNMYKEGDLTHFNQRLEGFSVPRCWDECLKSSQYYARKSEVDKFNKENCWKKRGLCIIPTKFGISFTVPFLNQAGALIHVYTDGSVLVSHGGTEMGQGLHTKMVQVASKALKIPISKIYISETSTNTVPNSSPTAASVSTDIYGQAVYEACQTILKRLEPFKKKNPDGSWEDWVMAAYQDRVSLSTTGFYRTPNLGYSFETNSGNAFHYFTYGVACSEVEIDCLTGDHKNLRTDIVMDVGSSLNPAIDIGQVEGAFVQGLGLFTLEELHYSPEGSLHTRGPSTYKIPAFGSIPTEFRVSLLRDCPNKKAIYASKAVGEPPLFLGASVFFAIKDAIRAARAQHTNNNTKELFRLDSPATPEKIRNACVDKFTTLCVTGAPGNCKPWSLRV
Description: Therefore, phenazine methosulfate was used to induce direct, rapid reoxidation of the molybdenum center ([22], [23]).
as §2, with “used.” for “used. The activity was measured by following 295 nm and 340 nm on a UV-1800 or UV1900i spectrophotometer.”
(§3) A295 indicates the concentration of uric acid yielded by XOR. […] A295 indicates the concentration of uric acid yielded by XOR. Figure S2. The XOR inhibition mode of oxypurinol.A–G, Lineweaver-Burk plots were generated to visualize data and estimated the inhibition patterns. Data are representative of least two independent experiments. […] Figure S3. […] B, mode of inhibition of oxypurinol on the inosine degradation reaction of PNP. […] 0, 250, 375, 500, 750 and 1000 μM of oxypurinol were used. […] The rate of NAD^+ conversion to NADH was measured at A340 nm.

XOR [3] = conditions: read-out: Ki for the xanthine to uric acid reaction; steady-state kinetic analysis; cited from earlier work
XO [4] = biological target: T2, XO (Bos taurus, UniProt P80457); experiment: oxidation of hypoxanthine to xanthine and uric acid by XO, HPLC time course; assay type: biochemical, bovine; parameters: Bovine milk was obtained from the animal farm of the Nippon Veterinary and Life Science University; from tissue; host or cells: bovine milk
T2 sequence (P80457 whole entry): as above
Description: as §1, §2
Purine concentrations were measured using a Shimadzu HPLC system consisting of the CBM-20A controller, LC-20AD pump, SIL-20AC autosampler (set at 4 °C), CTO-20A column oven (set at 40 °C), and SPD-M20A diode array detector. Peak analysis was performed using LC solution software. A SUPELCOSIL LC-18-T column (25 cm × 4.6 mm id 5 μm particle size) was used with the SUPELCOSIL LC-18-T Supelguard guard column separation of purines, using a flow rate was 0.8 ml/min and 10 or 20 μl samples. The mobile phase used was A: 0.1 M KPB and 4 mM tetrabutylammonium hydrogen sulfate (pH 5.5), B: 70% buffer A and 30% methanol (v/v). Gradient conditions were 0 min (0% B), 2 min (0% B), 4 min (30% B), 12 min (60% B), 15 min (100% B), 19 min (100% B), 20 min (0% B), and 30 min (0% B). Detection wavelengths were 254 nm, 268 nm, and 295 nm. The data were analyzed using LabSolutions Ver. 5.97 SP1. All purines were identified by retention time and quantified using an external standard.

xanthine oxidase = tested on: xanthine oxidase; parameters: method as in Graham et al. 64; conditions: ref Graham et al. 64; cited from earlier work
XO [5] = biological target: T2, XO; experiment: initial-velocity steady-state kinetics of XO, O2 as electron acceptor; assay type: biochemical, bovine; parameters: Bovine milk was obtained from the animal farm of the Nippon Veterinary and Life Science University; from tissue; host or cells: bovine milk
Description: as §2, §3

XOR [6] = conditions: pH 8.5 and 25 °C; cited from earlier work
[7] = as substrate of XOR, electron acceptor PMS, mean ± S.E.

XDH, sequence (P80457 whole entry): as above

## Oc1ncnc2[nH]ncc12 [Allopurinol]
[1]
  substrate or inhibitor of HGPRT: is a substrate
XDH
  concentration above which NADH formation is immediately inhibited: Above 5 μM
XOR [2]; [7]
  Km: 3.59 ± 0.45 µM
  kcat: 26.17 ± 1.96 s⁻¹
XOR [3]
  Ki: 0.1 µM
XO [4]; 10 μM inhibitor, 2.5 μM hypoxanthine, XO, pH 7.4, 25 °C
  time to inhibit conversion of hypoxanthine to xanthine: about 5 min
XO [4]; 50 μM inhibitor, 2.5 μM hypoxanthine, XO
  inhibition of conversion of hypoxanthine to xanthine: inhibition was immediate

## O=c1[nH]c(=O)c2c[nH]nc2[nH]1 [Oxypurinol]
Xanthine oxidase
  oxypurinol concentration at which xanthine oxidase is maximally inhibited: 33.75 µM
XO [5]
  Ki: 6.35 ± 0.96 µM
XO [5]; XO, substrate xanthine, O2, 295 nm
  Types of inhibition: Competitive
XO [5]; both XO and XDH, allopurinol Ki ref 19
  Ki for oxypurinol relative to Ki for allopurinol: about 10 fold
XOR [2]; substrate hypoxanthine
  Types of inhibition: Competitive
XOR [2]; substrate hypoxanthine, electron acceptor PMS, mean ± S.E.
  Ki: 1.29 ± 0.14 µM
XOR [2]; substrate xanthine
  Types of inhibition: Competitive
XOR [2]; substrate xanthine, electron acceptor PMS, mean ± S.E.
  Ki: 1.65 ± 0.24 µM
XOR [6]
  half-life for reoxidation / dissociation of the Ered•oxypurinol complex: 5 h
XO [4]; up to 500 μM inhibitor, XO and XDH
  accumulation of xanthine from hypoxanthine: accumulation of xanthine was still significant even at 500 μM oxypurinol
